Measurements reported in patent publication US4303640A, “Oil-in-water organophosphorus insecticidal emulsion” (priority 1979, dated 1981).
≈ marks a conversion by molar mass, not a printed value.

Legend:
[1] = size of emulsified particles of the active ingredient (microscope); assay type: physicochemical; settings: oil-in-water emulsion, as prepared
Experimental: A brief description of the method of producing the oil-in-water insecticidal emulsion of this invention will be given below. First, an insecticidally active liquid ingredient of the organophosphorus compound is added to a 2 to 20 wt% aqueous solution of polyvinyl alcohol or gum arabic, and a conventonal stirrer such as a T.K. Homomixer (a homogenizer manufactured by Tokushu Kika Kogyo Co., Ltd.) or a Shinagawa All-Purpose Mixer (a mixer manufactured by San-Ei-Seisakusho, Ltd.) is used to disperse the particles of the active ingredient (A.I.), generally at ambient temperature or, if necessary, at an elevated temperature (about 40° to 80° C.). The size of the emulsified particles of the active ingredient can be varied wihtin the range of from about 1 to 200μ depending upon the stirring force or the content of polyvinyl alcohol or gum arabic. A microscope is used to check the size of the emulsified particles of the active ingredient. Finally, for the purpose of preventing settling of the emulsified particles and improving the dispersion stability, an aqueous solution of a thickener is added to the emulsion in a suitable amount. The resulting oil-in-water insecticidal emulsion remains stable for an extended period. […]

physchem = settings: water

Compound	Particle Size of emulsified active ingredient [1] [μ]	solubility (physchem) [µg/mL]	water-solubility at 10° C.
COP(=S)(OC)Oc1ccc([N+](=O)[O-])c(C)c1 [Compound (1), O,O-dimethyl O-(3-methyl-4-nitrophenyl)phosphorothioate]	1 to 30	5 (≈ 18 µM)	
CCOC(=O)CC(SP(=S)(OC)OC)C(=O)OCC (stereo not drawn) [Compound (2), O,O-dimethyl S-[1,2-di-(ethoxycarbonyl)ethyl]-phosphorodithioate]		145 (≈ 439 µM)	
CCOC(=O)C(SP(=S)(OC)OC)c1ccccc1 (stereo not drawn) [Compound (4), O,O-dimethyl S-[α-(ethoxycarbonyl)benzyl]-phosphorodithioate]		4 (≈ 12.5 µM)	
COP(=S)(OC)Oc1ccc(C#N)cc1 [Compound (3), O,O-dimethyl O-(4-cyanophenyl)phosphorothioate]	1 to 50	28 (≈ 115 µM)	
COP(=O)(Cc1cccc(C#N)c1)OC		~6000 (≈ 26600 µM)	ca. 6,000 ppm
